# Results as given in patent US5126341A, “Anti-inflammatory 1,8-naphthyridin-2-one derivatives” (Kyowa Hakko Kogyo Co., Ltd., priority 1990, dated 1992).
# Read-outs that look alike come from different tables or passages of the source.
# Legend:
# [1] = system: carrageenin-induced paw edema; assay: Effect on carrageenin-induced paw edema; assay type: in vivo, male Wistar rats; conditions: po; rat, 100 mg/kg p.o., 1 hour before 1% carrageenin; paw volume 3 hours after injection; read-out: Suppression rate for paw swelling, (a) carrageenin-induced edema
# Protocol: a) Effect on carrageenin-induced paw edema
# Male Wistar rats weighing 150 to 160 g (n=3-5) were used in the experiment. After the right hind paw volume was measured with the plethysmograph (TK-101; Unicom Co., Ltd.), the test compound (100 mg/kg) was orally administered. After one hour, 0.1 ml of 1 % carrageenin (λ-carrageenin; PICNIN-A®, Zushi Kagaku Co., Ltd.) was subcutaneously injected into the right hind paw footpad. Three hours after the injection of carrageenin, the right hind paw volume was measured and the swelling rate was determined by the following equation 1. [formula]
# Vt: the right hind paw volume measured 3 hours after the injection of carrageenin
# Vo: the right hind paw volume measured prior to the injection of carrageenin
# The suppression rate was calculated by the following equation 2. [formula]
# Swt: the swelling rate of the group administered with the test compound
# Swc: the swelling rate of the control group administered with no test compound
# [2] = system: Type III allergic reaction-induced pleurisy; assay: Effect on Type III allergic reaction-induced pleurisy; assay type: in vivo, male Wistar rats; conditions: po, 4.5 h, rat, 100 mg/kg p.o., four and a half hours after induction of pleurisy
# Protocol: d) Effect on Type III allergic reaction-induced pleurisy
# IgG was purified from rabbit anti-OA serum prepared in advance by the method of Koda et al. [Folia Pharmacol., Japon 66, 237, (1970)] in the following manner.
# A saturated solution of ammonium sulfate (half volume of the serum) was added to the anti-OA serum, and the mixture was left for one hour at 4° C. The precipitate was taken by centrifugation (3,000 rpm, 30 min, 4° C.) and dissolved in phosphate buffered saline of Dulbecco. Then, ammonium sulfate fractionation was carried out three times in the same manner as above, whereby a purified IgG fraction was obtained.
# Male Wistar rats weighing 225-250 g were pre-bred for several days and fasted overnight prior to the experiment The test compound (100 mg/kg) was orally administered to the animals, and after 30 minutes, IgG of rabbit anti-OA (0.2 ml, 5 mg protein/ml) was injected into the pleural cavity of the animals under anesthesia with ether. Thirty minutes after the injection of IgG, OA (albumin egg grade III; Sigma Chemical Co.) was intravenously injected into the animals as an inducer of pleurisy. After two hours, Evans Blue (25 mg/kg) was intravenously injected, and four and a half hours after the induction of pleurisy, the animals were killed by bleeding.
# Then, an exudate in the pleural cavity was obtained, and the volume of the exudate was measured. The pleural cavity was rinsed with 5 ml of physiological saline and the rinsings were added to the exudate. The number of infiltrated cells in the mixture was counted and the volume of the dye in the mixture was determined by the absorption at 625 nm [Agent Actions., 25, 326 (1988)]. The suppression rates for the volume of the exudate, the number of infiltrated cells and the volume of the dye in the pleural cavity were calculated by the following equation 3. [formula]
# S.V: the value obtained with the group administered with the test compound and in which pleurisy is induced
# N.V: the value obtained with the group in which pleurisy is not induced
# P.V: the value obtained with the group administered with no test compound and in which pleurisy is induced
# [3] = system: zymosan-induced paw edema; assay: Effect on zymosan-induced paw edema; assay type: in vivo, male Wistar rats; conditions: rat, 100 mg/kg p.o., 1 hour before 1% zymosan; paw volume 4 hours after injection
# Protocol: b) Effect on zymosan-induced paw edema
# (§1) The experiment was carried out in the same manner as in the carrageenin-induced paw edema test except that 1% zymosan (Zymosan A®; Sigma Chemical Co.) was used in place of 1% carrageenin and the right hind paw volume was measured 4 hours after the injection of the edema-inducing substance instead of 3 hours. The swelling rate and the suppression rate were calculated by equation 1 and equation 2, respectively.
# [4] = system: arachidonic acid-induced paw edema; assay: Arachidonic acid-induced paw edema; assay type: in vivo, male Wistar rats; conditions: rat, 100 mg/kg p.o., 1 hour before 0.5% arachidonic acid; paw volume one hour after injection
# Protocol: c) Arachidonic acid-induced paw edema
# as §1, with “0.5% arachidonic acid” for “1% zymosan (Zymosan A®; Sigma Chemical Co.)”, “one hour” for “4 hours”
# [5] = system: male dd-mice; conditions: mouse, in vivo, 10080 min; for Acute toxicity (MLD, Minimum Lethal Dose) i.p.: ip; for Acute toxicity (MLD, Minimum Lethal Dose) p.o.: po
# Protocol: The test compounds were orally or intraperitoneally administered to male dd-mice weighing 20 to 25 g. MLD (Minimum Lethal Dose) was determined by observing the mortality for seven days after the administration.
# [6] = Evans Blue 25 mg/kg i.v., absorption at 625 nm, read-out: Suppression rate, volume of dye in the exudate
# [7] = read-out: Suppression rate, number of infiltrated cells in the exudate
# [8] = read-out: Suppression rate, volume of exudate
SMILES,inhibition in vivo at 100 mg/kg [1],"inhibition in vivo at 100 mg/kg [2, 6]","inhibition in vivo at 100 mg/kg [2, 7]","inhibition in vivo at 100 mg/kg [2, 8]","Suppression rate for paw swelling, (b) zymosan-induced edema [3]","Suppression rate for paw swelling, (c) arachidonic acid-induced edema [4]","Acute toxicity (MLD, Minimum Lethal Dose) i.p. [5]","Acute toxicity (MLD, Minimum Lethal Dose) p.o. [5]"
"O=C(Nc1cccnc1)c1c(O)c2cccnc2n(-c2ccccc2)c1=O [Compound 4, 4-Hydroxy-2-oxo-1-phenyl-N-(3-pyridyl)-1H-1,8-naphthyridine-3-carboxamide]",40%,54.4%,30.5%,75.3%,37.8%,34.9%,> 100 mg/kg,> 300 mg/kg
"O=C(Nc1ccncc1)c1c(O)c2cccnc2n(-c2ccccc2)c1=O [Compound 5, 4-Hydroxy-2-oxo-1-phenyl-N-(4-pyridyl)-1H-1,8-naphthyridine-3-carboxamide]",38.5%,66.5%,58.6%,100%,38.4%,48.0%,> 100 mg/kg,300 mg/kg
